# Values quoted from earlier work, collected in patent US20090023692A1, “COMPOSITIONS FOR INHIBITING AND PREVENTING VASCULAR OCCLUSION CONTAINING NUTRITIONAL SUPPLEMENTS” (NeursoSci, Inc., priority 2005, published 2009).
# Conditions: daily administration of low doses (approximately 80-100 mg), patients at risk for cardiovascular events
structure (smiles),measurement,value
"CC(=O)Oc1ccccc1C(=O)O [aspirin, acetylsalicylic acid]","reduction of second heart attacks, strokes, and cardiovascular deaths",at least 25%
